This experiment addresses T1, recombinant human Estrogen Receptor alpha ligand binding domain, residues 307-554 (ER alpha-LBD (GST)) (Homo sapiens, UniProt P03372).
T1 construct: made in house
T1 sequence (P03372 307-554): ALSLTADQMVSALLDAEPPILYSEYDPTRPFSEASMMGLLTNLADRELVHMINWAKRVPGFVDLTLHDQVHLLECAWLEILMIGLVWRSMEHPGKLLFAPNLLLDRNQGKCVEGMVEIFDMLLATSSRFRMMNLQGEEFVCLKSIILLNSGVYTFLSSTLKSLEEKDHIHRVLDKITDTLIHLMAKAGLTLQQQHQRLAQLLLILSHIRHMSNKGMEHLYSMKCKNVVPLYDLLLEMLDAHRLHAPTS
In words: ERα binding assay (LanthaScreen TR-FRET competition). The conditions noted are these: TR-FRET competition with Fluormone ES2 tracer, 4 hours at room temperature; single experiment or average of two or more. Background: In TR-FRET formats the signal depends on donor and acceptor labels being close together.

Broadly, the IC50 is the concentration that gives 50% inhibition. Regarding `Cc1ncsc1-c1ccc(CNC(=O)[C@@H]2C[C@@H](O)CN2C(=O)[C@@H](NC(=O)COCCOCCCCCOc2cnc([C@@H]3c4[nH]c5ccccc5c4C[C@@H](C)N3CC(C)(F)F)c(F)c2)C(C)(C)C)cc1` [Example 164, (2S,4R)-1-((S)-2-(2-(2-((5-((6-((1S,3R)-2-(2,2-Difluoropropyl)-3-methyl-2,3,4,9-tetrahydro-1H-pyrido[3,4-b]indol-1-yl)-5-fluoropyridin-3-yl)oxy)pentyl)oxy)ethoxy)acetamido)-3,3-dimethylbutanoyl)-4-hydroxy-N-(4-(4-methylthiazol-5-yl)benzyl)pyrrolidine-2-carboxamide], the concentration for half-maximal inhibition (IC50) stood at 6.6 nM. As for `Cc1ncsc1-c1ccc(CNC(=O)[C@@H]2C[C@@H](O)CN2C(=O)[C@@H](NC(=O)COCCOCCCCCOc2cnc([C@@H]3c4[nH]c5ccccc5c4C[C@@H](C)N3CC(F)(F)F)c(F)c2)C(C)(C)C)cc1` [Example 165, (2S,4R)-1-((S)-2-(2-(2-((5-((5-Fluoro-6-((1S,3R)-3-methyl-2-(2,2,2-trifluoroethyl)-2,3,4,9-tetrahydro-1H-pyrido[3,4-b]indol-1-yl)pyridin-3-yl)oxy)pentyl)oxy)ethoxy)acetamido)-3,3-dimethylbutanoyl)-4-hydroxy-N-(4-(4-methylthiazol-5-yl)benzyl)pyrrolidine-2-carboxamide], the half-maximal inhibitory concentration (IC50) was 11.4 nM. For `Cc1ncsc1-c1ccc(CNC(=O)[C@@H]2C[C@@H](O)CN2C(=O)[C@@H](NC(=O)COCCOCCCCCOc2cc(F)c([C@@H]3c4[nH]c5ccccc5c4C[C@@H](C)N3CC(C)(F)F)c(F)c2)C(C)(C)C)cc1` [Example 166, (2S,4R)-1-((S)-2-(2-(2-((5-(4-((1R,3R)-2-(2,2-Difluoropropyl)-3-methyl-2,3,4,9-tetrahydro-1H-pyrido[3,4-b]indol-1-yl)-3,5-difluorophenoxy)pentyl)oxy)ethoxy)acetamido)-3,3-dimethylbutanoyl)-4-hydroxy-N-(4-(4-methylthiazol-5-yl)benzyl)pyrrolidine-2-carboxamide], the concentration for half-maximal inhibition (IC50) came out at 0.8 nM.

Consider `Cc1ncsc1-c1ccc(CNC(=O)[C@@H]2C[C@@H](O)CN2C(=O)[C@@H](NC(=O)COCCOCCCCCOc2cc(F)c([C@@H]3c4[nH]c5ccccc5c4C[C@@H](C)N3CC(F)F)c(F)c2)C(C)(C)C)cc1` [Example 167, (2S,4R)-1-((S)-2-(2-(2-((5-(4-((1R,3R)-2-(2,2-Difluoroethyl)-3-methyl-2,3,4,9-tetrahydro-1H-pyrido[3,4-b]indol-1-yl)-3,5-difluorophenoxy)pentyl)oxy)ethoxy)acetamido)-3,3-dimethylbutanoyl)-4-hydroxy-N-(4-(4-methylthiazol-5-yl)benzyl)pyrrolidine-2-carboxamide], for which the IC50 came to 0.9 nM.

(Values after US10519152B2, “Compounds and their use in treating cancer” (AstraZeneca AB, priority 2017, dated 2019).)
